Series [1] is described as follows: Drug uptake in C57BL/6 mouse kidney at 40 mg/kg, po administered via gavage by LC-MS/MS analysis. The series is classed as ADME, organism-based. To be noted: in vivo.
Series [2] has as its target T1, Protein deacetylase HDAC6 (Homo sapiens, UniProt Q9UBN7).
T1 sequence (Q9UBN7 whole entry): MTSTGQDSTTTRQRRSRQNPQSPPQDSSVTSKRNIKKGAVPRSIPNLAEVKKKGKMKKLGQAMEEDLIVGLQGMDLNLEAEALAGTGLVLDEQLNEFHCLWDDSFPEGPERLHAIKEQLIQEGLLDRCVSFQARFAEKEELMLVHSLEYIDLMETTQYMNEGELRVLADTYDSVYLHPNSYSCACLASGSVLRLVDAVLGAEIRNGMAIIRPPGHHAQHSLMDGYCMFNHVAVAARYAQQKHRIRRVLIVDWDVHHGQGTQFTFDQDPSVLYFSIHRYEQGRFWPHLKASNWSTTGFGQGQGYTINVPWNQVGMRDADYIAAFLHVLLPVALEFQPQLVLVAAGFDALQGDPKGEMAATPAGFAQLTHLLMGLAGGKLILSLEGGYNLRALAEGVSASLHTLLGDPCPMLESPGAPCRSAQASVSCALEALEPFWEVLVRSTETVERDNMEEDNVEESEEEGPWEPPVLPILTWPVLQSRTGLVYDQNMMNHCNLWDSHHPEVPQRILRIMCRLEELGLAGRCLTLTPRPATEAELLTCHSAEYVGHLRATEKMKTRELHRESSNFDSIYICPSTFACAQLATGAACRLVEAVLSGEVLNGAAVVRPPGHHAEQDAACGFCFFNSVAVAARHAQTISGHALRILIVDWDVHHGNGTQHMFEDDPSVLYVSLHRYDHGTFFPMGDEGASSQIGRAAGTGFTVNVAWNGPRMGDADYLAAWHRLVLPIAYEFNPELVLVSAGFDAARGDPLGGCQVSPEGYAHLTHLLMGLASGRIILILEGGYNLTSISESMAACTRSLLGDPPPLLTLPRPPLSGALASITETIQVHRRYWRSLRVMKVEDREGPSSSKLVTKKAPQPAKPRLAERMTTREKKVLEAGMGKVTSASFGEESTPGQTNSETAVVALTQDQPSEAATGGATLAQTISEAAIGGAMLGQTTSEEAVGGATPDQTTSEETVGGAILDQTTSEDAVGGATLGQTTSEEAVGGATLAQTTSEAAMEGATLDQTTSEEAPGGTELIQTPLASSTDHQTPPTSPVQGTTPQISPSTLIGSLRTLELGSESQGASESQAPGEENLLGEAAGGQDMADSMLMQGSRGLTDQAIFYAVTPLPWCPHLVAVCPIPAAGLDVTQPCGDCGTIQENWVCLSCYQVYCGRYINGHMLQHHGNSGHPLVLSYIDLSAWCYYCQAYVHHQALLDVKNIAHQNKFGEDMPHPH
Description: Competitive inhibition of human HDAC6 CD2 expressed in Escherichia coli BL21 (RIL) using Boc-Lys (Ac)-AMC as substrate preincubated for 10 mins followed by substrate addition and measured after 30 mins by fluorescence assay.

Series [3] relates to Lewis lung carcinoma cell line. The series can be described thus: Potentiation of paclitaxel-induced cytotoxicity in mouse LL/2 cells assessed as combination index up to 10 uM after 72 hrs by Chou-Talalay method. The series is classed as functional.
The test system of series [4] is Lewis lung carcinoma cell line. Description: Induction of apoptosis in mouse LL/2 cells assessed as late apoptotic cells at 4 uM after 24 hrs by Annexin V/propidium iodide staining-based flow cytometric analysis (reference value: 8.7%). In kind it is functional. On the technique in general: In flow cytometry, cells or beads pass a laser one at a time.
Series [5] deals with Lewis lung carcinoma cell line. The series can be described thus: Induction of apoptosis in mouse LL/2 cells assessed as necrotic cells at 4 uM after 24 hrs in presence of paclitaxel by Annexin V/propidium iodide staining-based flow cytometric analysis (reference value: 7.3%). The series is classed as functional.
The subject of series [6] is A549. The series can be described thus: Induction of apoptosis in human A549 cells assessed as necrotic cells at 4 uM after 24 hrs by Annexin V/propidium iodide staining-based flow cytometric analysis (reference value: 1.1%). The series is classed as functional.
Series [7] deals with A549. The series can be described thus: Induction of apoptosis in human A549 cells assessed as viable cells at 4 uM after 24 hrs in presence of paclitaxel by Annexin V/propidium iodide staining-based flow cytometric analysis (reference value: 96.2%). In kind it is functional.
In series [8] the test system is A549. Description: Induction of apoptosis in human A549 cells assessed as early apoptotic cells at 4 uM after 24 hrs in presence of paclitaxel by Annexin V/propidium iodide staining-based flow cytometric analysis (reference value: 1.2%). The series is classed as functional.
Series [9] concerns Lewis lung carcinoma cell line. Description: Antitumor activity against mouse LL/2 cells implanted in C57BL/6 mouse assessed as tumor growth inhibition at 40 to 80 mg/kg, po qd administered for 21 consecutive days relative to control. In kind it is functional.
A short description of series [10]: AUC (0 to 24 hrs) in C57BL/6 mouse kidney at 40 mg/kg, po administered via gavage by LC-MS/MS analysis. The series is classed as ADME, organism-based. Details: time < 24 hr, dose 40 mg/kg, route oral. As to conditions: in vivo.
The nature of series [11]: Ratio of compound AUC (0 to 24 hrs) to ACY-1215 AUC (0 to 24 hrs) in C57BL/6 mouse liver at 40 mg/kg, po administered via gavage by LC-MS/MS analysis. To be noted: in vivo. The series is classed as ADME, organism-based.
A short description of series [12]: Drug metabolism in C57BL/6 mouse liver assessed as hydrolysis metabolite formation at 40 mg/kg, po administered via gavage by LC-MS/MS analysis. In kind it is ADME, organism-based. As to conditions: in vivo.
A short description of series [13]: Drug uptake in C57BL/6 mouse liver at 40 mg/kg, po administered via gavage co-administered with paclitaxel at 10 mg/kg, ip by LC-MS/MS analysis. The series is classed as ADME, organism-based. As to conditions: in vivo.
The nature of series [14]: Ratio of drug uptake in C57BL/6 mouse lung at 40 mg/kg, po administered via gavage co-administered with paclitaxel at 10 mg/kg, ip by LC-MS/MS analysis to drug uptake in C57BL/6 mouse lung at 40 mg/kg, po administered via gavage by LC-MS/MS analysis. As to conditions: in vivo. The series is classed as ADME, organism-based.
Series [15] is described as follows: Ratio of drug uptake in C57BL/6 mouse liver at 40 mg/kg, po administered via gavage co-administered with paclitaxel at 10 mg/kg, ip by LC-MS/MS analysis to drug uptake in C57BL/6 mouse liver at 40 mg/kg, po administered via gavage by LC-MS/MS analysis. In kind it is ADME, organism-based. As to conditions: in vivo.
The nature of series [16]: Ratio of drug uptake in C57BL/6 mouse kidney at 40 mg/kg, po administered via gavage co-administered with paclitaxel at 10 mg/kg, ip by LC-MS/MS analysis to drug uptake in C57BL/6 mouse kidney at 40 mg/kg, po administered via gavage by LC-MS/MS analysis. In kind it is ADME, organism-based. As to conditions: in vivo.
Series [17] in a line: Ratio of drug uptake in C57BL/6 mouse plasma at 40 mg/kg, po administered via gavage co-administered with paclitaxel at 10 mg/kg, ip by LC-MS/MS analysis to drug uptake in C57BL/6 mouse plasma at 40 mg/kg, po administered via gavage by LC-MS/MS analysis. The series is classed as ADME, organism-based. As to conditions: in vivo.
A short description of series [18]: Drug metabolism in C57BL/6 mouse lung assessed as hydrolysis metabolite formation at 40 mg/kg, po administered via gavage by LC-MS/MS analysis. In kind it is ADME, organism-based. As to conditions: in vivo.
Series [19] in a line: Drug metabolism in C57BL/6 mouse kidney assessed as hydrolysis metabolite formation at 40 mg/kg, po administered via gavage by LC-MS/MS analysis. The series is classed as ADME, organism-based. To be noted: in vivo.

A value given as a limit tells only on which side of the number the result lay.

In the case of `O=C(NO)c1ccc(Cn2c(=O)n(CCc3ccccc3)c(=O)c3ccccc32)cc1`, the Drug uptake in series [1] amounted to 130 ng/g; in series [13], 719 ng/g. The molecule also gave an inhibitory constant (Ki) in [2] of 3.7 nM. For the same molecule, the CI in series [3] is given as less than 1. Further, the Activity in series [4] is given as 10.4%; in [5] it was 5.3%; in series [6], 0.7%; in series [7] it was 92.7%; in series [8], 5.4%. Moreover, in series [9], the TGI amounted to 63.4%. Moreover, the AUC in series [10] was determined as 1903 ng·h/g. Moreover, the “Ratio AUC” value in [11] is on record as 4.4. Also, the Drug metabolism entry in series [12], in series [18] and in series [19] was “Metabolite_Detected” throughout. In addition, the Ratio is reported as 1.6 in [14], 0.9 in [15], 3 in series [16] and 12.3 in series [17].

For orientation: Ki means the equilibrium dissociation constant of an inhibitor or competing ligand from its target. Low readings indicate a stronger hold on the target, high ones a looser hold on the target. Broadly, the TGI is the reduction of tumour growth relative to the control group.
